From patent US6492387B2, “Isoindolyl and isoquinolinyl aroyl pyrrole compounds” (Ortho-McNeil Pharamaceutical, Inc., priority 2000, dated 2002)
Structures can show the parent of a compound that is named as a salt.

## COc1cc2c(cc1OC)CN(CC(=O)c1cc(C(=O)c3ccc(SC)cc3)n(C)c1)CC2 (as salt: hydrochloride) [Compound 4, 2-(3,4-dihydro-6,7-dimethoxy-2(1H)-isoquinolinyl)-1-[1-methyl-5-[4-(methylthio)benzoyl]-1H-pyrrol-3-yl]-ethanone]
  melting point: 231 to 233 °C
